Results reported in ChEMBL document CHEMBL3885881, “DrugMatrix”.

Species on record: Rattus norvegicus
Assay: DrugMatrix - Regimen: Daily Repeat
Assay type: toxicity, organism-based, Sprague-Dawley
Design: regimen Daily Repeat, gender Male, age 6-8 weeks
Settings: in vivo, po, route oral GAVAGE, […]; for ABSOLUTE BASOPHIL / ABSOLUTE EOSINOPHIL / ABSOLUTE LYMPHOCYTE / ABSOLUTE MONOCYTE / ABSOLUTE SEGMENTED NEUTROPHIL / BASOPHIL / EOSINOPHIL / ERYTHROCYTE COUNT / HEMATOCRIT / HEMOGLOBIN / LEUKOCYTE COUNT / LYMPHOCYTE / MEAN CORPUSCULAR HEMOGLOBIN / MEAN CORPUSCULAR HEMOGLOBIN CONCENTRATION / MEAN CORPUSCULAR VOLUME / MONOCYTE / NEUTROPHIL / NUCLEATED RED BLOOD CELLS / PLATELET COUNT: tissue Blood; for ALANINE AMINOTRANSFERASE / ALBUMIN / ALKALINE PHOSPHATASE / ASPARTATE AMINOTRANSFERASE / BLOOD UREA NITROGEN / CARBON DIOXIDE / CHLORIDE / CHOLESTEROL / CREATINE PHOSPHOKINASE / CREATININE / GLUCOSE / LACTATE DEHYDROGENASE / LIPASE / PHOSPHORUS / POTASSIUM / SODIUM / TOTAL BILIRUBIN / TOTAL PROTEIN / URIC ACID: tissue Plasma
[1] = 2 mg/kg, 120 h, dose level High, time 5 day
[2] = 72 h, dose 0.58 mg/Kg, dose level Low, time 3 day
[3] = 120 h, dose 0.58 mg/Kg, dose level Low, time 5 day

Compound: COc1ccc2c(c1)c(CC(=O)OCC(=O)O)c(C)n2C(=O)c1ccc(Cl)cc1 [ACEMETACIN]
- ABSOLUTE BASOPHIL [1]: 0 CELLS/uL
- ABSOLUTE EOSINOPHIL [1]: 198 CELLS/uL
- ABSOLUTE LYMPHOCYTE [1]: 16941.67 CELLS/uL
- ABSOLUTE MONOCYTE [1]: 330.33 CELLS/uL
- ABSOLUTE SEGMENTED NEUTROPHIL [1]: 2163.33 CELLS/uL
- BASOPHIL [1]: 0%
- EOSINOPHIL [1]: 1%
- ERYTHROCYTE COUNT [1]: 6.35 x10E6/uL
- HEMATOCRIT [1]: 38.5%
- HEMOGLOBIN [1]: 14.23 G/DL
- LEUKOCYTE COUNT [1]: 19.63 x10E3/uL
- LYMPHOCYTE [1]: 86.33%
- MEAN CORPUSCULAR HEMOGLOBIN [1]: 22.47 pg
- MEAN CORPUSCULAR HEMOGLOBIN CONCENTRATION [1]: 36.97 G/DL
- MEAN CORPUSCULAR VOLUME [1]: 60.67 fL
- MONOCYTE [1]: 1.67%
- NEUTROPHIL [1]: 11%
- NUCLEATED RED BLOOD CELLS [1]: 0 /100WBC
- PLATELET COUNT [1]: 1196 x10E3/uL
- ALANINE AMINOTRANSFERASE [1]: 77 u/L
- ALBUMIN [1]: 4.33 G/DL
- ALKALINE PHOSPHATASE [1]: 434 u/L
- ASPARTATE AMINOTRANSFERASE [1]: 106.33 u/L
- BLOOD UREA NITROGEN [1]: 15.33 mg/dL
- CARBON DIOXIDE [1]: 26 mmol/L
- CHLORIDE [1]: 102 MEQ/L
- CHOLESTEROL [1]: 58 mg/dL
- CREATINE PHOSPHOKINASE [1]: 673.33 u/L
- CREATININE [1]: 0.19 mg/dL
- GLUCOSE [1]: 155.33 mg/dL
- LACTATE DEHYDROGENASE [1]: 783.33 u/L
- LIPASE [1]: 10 u/L
- PHOSPHORUS [1]: 11.9 mg/dL
- POTASSIUM [1]: 6.17 MEQ/L
- SODIUM [1]: 143.57 MEQ/L
- TOTAL BILIRUBIN [1]: 0.2 mg/dL
- TOTAL PROTEIN [1]: 5.87 G/DL
- URIC ACID [1]: 1.93 mg/dL
- ABSOLUTE BASOPHIL [2]: 0 CELLS/uL
- ABSOLUTE EOSINOPHIL [2]: 126 CELLS/uL
- ABSOLUTE LYMPHOCYTE [2]: 13647.33 CELLS/uL
- ABSOLUTE MONOCYTE [2]: 360 CELLS/uL
- ABSOLUTE SEGMENTED NEUTROPHIL [2]: 1833.33 CELLS/uL
- BASOPHIL [2]: 0%
- EOSINOPHIL [2]: 0.67%
- ERYTHROCYTE COUNT [2]: 5.77 x10E6/uL
- HEMATOCRIT [2]: 35.7%
- HEMOGLOBIN [2]: 13.3 G/DL
- LEUKOCYTE COUNT [2]: 15.97 x10E3/uL
- LYMPHOCYTE [2]: 85.67%
- MEAN CORPUSCULAR HEMOGLOBIN [2]: 23.07 pg
- MEAN CORPUSCULAR HEMOGLOBIN CONCENTRATION [2]: 37.23 G/DL
- MEAN CORPUSCULAR VOLUME [2]: 61.97 fL
- MONOCYTE [2]: 2.33%
- NEUTROPHIL [2]: 11.33%
- NUCLEATED RED BLOOD CELLS [2]: 0 /100WBC
- PLATELET COUNT [2]: 1055 x10E3/uL
- ALANINE AMINOTRANSFERASE [2]: 66 u/L
- ALBUMIN [2]: 3.93 G/DL
- ALKALINE PHOSPHATASE [2]: 319 u/L
- ASPARTATE AMINOTRANSFERASE [2]: 94 u/L
- BLOOD UREA NITROGEN [2]: 16.33 mg/dL
- CARBON DIOXIDE [2]: 27 mmol/L
- CHLORIDE [2]: 102.33 MEQ/L
- CHOLESTEROL [2]: 67.33 mg/dL
- CREATINE PHOSPHOKINASE [2]: 359 u/L
- CREATININE [2]: 0.19 mg/dL
- GLUCOSE [2]: 160.33 mg/dL
- LACTATE DEHYDROGENASE [2]: 379.33 u/L
- LIPASE [2]: 9.67 u/L
- PHOSPHORUS [2]: 11.53 mg/dL
- POTASSIUM [2]: 6.9 MEQ/L
- SODIUM [2]: 144.43 MEQ/L
- TOTAL BILIRUBIN [2]: 0.2 mg/dL
- TOTAL PROTEIN [2]: 5.37 G/DL
- URIC ACID [2]: 1.47 mg/dL
- ABSOLUTE BASOPHIL [3]: 0 CELLS/uL
- ABSOLUTE EOSINOPHIL [3]: 113 CELLS/uL
- ABSOLUTE LYMPHOCYTE [3]: 13989.33 CELLS/uL
- ABSOLUTE MONOCYTE [3]: 257.33 CELLS/uL
- ABSOLUTE SEGMENTED NEUTROPHIL [3]: 2073.67 CELLS/uL
- BASOPHIL [3]: 0%
- EOSINOPHIL [3]: 0.67%
- ERYTHROCYTE COUNT [3]: 6.2 x10E6/uL
- HEMATOCRIT [3]: 37.73%
- HEMOGLOBIN [3]: 13.77 G/DL
- LEUKOCYTE COUNT [3]: 16.43 x10E3/uL
- LYMPHOCYTE [3]: 85.33%
- MEAN CORPUSCULAR HEMOGLOBIN [3]: 22.23 pg
- MEAN CORPUSCULAR HEMOGLOBIN CONCENTRATION [3]: 36.53 G/DL
- MEAN CORPUSCULAR VOLUME [3]: 60.93 fL
- MONOCYTE [3]: 1.67%
- NEUTROPHIL [3]: 12.33%
- NUCLEATED RED BLOOD CELLS [3]: 0 /100WBC
- PLATELET COUNT [3]: 1216 x10E3/uL
- ALANINE AMINOTRANSFERASE [3]: 65.33 u/L
- ALBUMIN [3]: 4.53 G/DL
- ALKALINE PHOSPHATASE [3]: 452 u/L
- ASPARTATE AMINOTRANSFERASE [3]: 90.33 u/L
- BLOOD UREA NITROGEN [3]: 19.67 mg/dL
- CARBON DIOXIDE [3]: 26.67 mmol/L
- CHLORIDE [3]: 105 MEQ/L
- CHOLESTEROL [3]: 58.33 mg/dL
- CREATINE PHOSPHOKINASE [3]: 293.67 u/L
- CREATININE [3]: 0.22 mg/dL
- GLUCOSE [3]: 163.33 mg/dL
- LACTATE DEHYDROGENASE [3]: 355 u/L
- LIPASE [3]: 9 u/L
- PHOSPHORUS [3]: 11.6 mg/dL
- POTASSIUM [3]: 6.5 MEQ/L
- SODIUM [3]: 145.13 MEQ/L
- TOTAL BILIRUBIN [3]: 0.13 mg/dL
- TOTAL PROTEIN [3]: 6.27 G/DL
- URIC ACID [3]: 1.97 mg/dL
